We go through 5 compounds from ChEMBL document CHEMBL6153140, “Pestones A and B from a Fungus Pestalotiopsis sp. Bound to Mutant p53 and Changed Its Conformation” (J Nat Prod, 2025).

The source made the active and inactive calls. The calls are words filed in the database; no cut-off is given here.

The nature of series [1]: Cytotoxicity against human SAOS-2 cells harboring p53 […] mutant incubated for 3 days by MTT assay. The series is classed as functional, cell-based. To be noted: SAOS-2, 72 h.
Series [2] relates to SAOS-2. Kind of series: Effect on conformation of p53 […] mutant in human SAOS-2 cells at 2 uM incubated for 6 hrs by Hoechst 33342 staining based immunofluorescence analysis. The class given is functional, cell-based.
Series [3] relates to SAOS-2. Kind of series: Binding affinity to p53 […] mutant in human SAOS-2 cells assessed as thermal stabilization at 5 uM at 40 to 43 degreeC incubated for 1 hr by CETSA based Western blot analysis. The series is classed as cell-based.
Series [4] is described as follows: Induction of apoptosis in human SAOS-2 cells harboring p53 […] mutant assessed as viable cells at 4 uM incubated for 24 hrs by Annexin V-FITC/PI staining based flow cytometric analysis (reference value: 94.3%). The series is classed as functional. To be noted: read-out: Activity.
Series [5] in a line: Induction of apoptosis in human SAOS-2 cells harboring p53 […] mutant assessed as early apoptotic cells at 4 uM incubated for 24 hrs by Annexin V-FITC/PI staining based flow cytometric analysis (reference value: 4.1%). The class given is functional.
Series [6] can be described thus: Induction of apoptosis in human SAOS-2 cells harboring p53 […] mutant assessed as late apoptotic cells at 4 uM incubated for 24 hrs by Annexin V-FITC/PI staining based flow cytometric analysis (reference value: 1.2%). The series is classed as functional.
Series [7] is described as follows: Induction of apoptosis in human SAOS-2 cells harboring p53 […] mutant assessed as necrotic cells at 4 uM incubated for 24 hrs by Annexin V-FITC/PI staining based flow cytometric analysis (reference value: 0.4%). The series is classed as functional.
The nature of series [8]: Induction of apoptosis in human SAOS-2 cells harboring p53 […] mutant assessed as fold increase in early apoptotic cells at 4 uM incubated for 24 hrs by Annexin V-FITC/PI staining based flow cytometric analysis. The series is classed as functional.
The nature of series [9]: Induction of apoptosis in human SAOS-2 cells harboring p53 […] mutant assessed as fold increase in late apoptotic cells at 4 uM incubated for 24 hrs by Annexin V-FITC/PI staining based flow cytometric analysis. The series is classed as functional.
Series [10] has as its system HuCCT-1. Kind of series: Antitumor activity against human HuCCT-1 cells harboring p53 […] mutant xenografted in male BALB/c Slc-nu/nu mouse model assessed as reduction in tumor volume administered IT(Intratumoral) every other day and measured on day 13 (reference value: 56 to 98 mm3). To be noted: time 13 day. The class given is functional.
The nature of series [11]: Toxicity in male BALB/c Slc-nu/nu mouse assessed as effect on body weight loss administered IT(Intratumoral) every other day and measured after 13 days. To be noted: in vivo, 312 h, time 13 day.
Series [12] has as its system SAOS-2. Kind of series: Effect on conformation of p53 […] mutant in human SAOS-2 cells at 100 uM incubated for 6 hrs by Hoechst 33342 staining based immunofluorescence analysis. The class given is functional, cell-based.

In series [1], `C/C=C/C1=C(CO)C(=O)[C@@H]2O[C@]2([C@H](O)C=C(C)C)C1=O` displayed an IC50 of 0.92 µM.
`CC(C)=C[C@@H](O)[C@]12O[C@H]1C(=O)C1=C(C2=O)C2[C@@H]3[C@@H](C)OC=C4C(=O)[C@@H]5O[C@]5([C@H](O)C=C(C)C)C(=O)[C@]43C1O[C@@H]2C` (some centres not stated): the result in series [2] and in series [3] was Active. In series [1], this compound gave an IC50 of 1 µM. Moreover, the viability at 4 µM in [4] came to 80%. Also, the Activity is on record as 13.6% in series [5]; 5.7% in series [6]; 0.7% in series [7]; 140 mm3 in [10]; “Non-toxic” in [11]. Further, the “fold change (FC)” value was 3.3 in series [8] and 4.8 in series [9].
Turning to `CC(C)=C[C@@H](O)[C@]12O[C@H]1C(=O)C1=C(C2=O)C2[C@H](C)OC1[C@]13C(=O)[C@@]4([C@H](O)C=C(C)C)O[C@H]4C(=O)C1=CO[C@@H](C)[C@H]23` (some centres not stated), the result in series [2] was Active. Further, in [1], the half-maximal inhibitory concentration (IC50) worked out at 1.1 µM.
As to `C/C=C/C1=C(CO)[C@@H](O)[C@@H]2O[C@]2([C@H](O)C=C(C)C)C1=O`, the outcome in series [12] was inactive. Also, in [1], the IC50 is greater than 20 µM.
Consider `CC(C)=C[C@@H](O)[C@]12O[C@H]1[C@H](O)C1=C(C2=O)C2C(C)OC1[C@]13C(=O)[C@@]4([C@H](O)C=C(C)C)O[C@H]4[C@H](O)C1=CO[C@@H](C)[C@H]23` (some centres not stated), for which the IC50 in [1] was greater than 20 µM.
